# Where “and” joins values, the source holds several entries; their conditions need not be identical. Identical values can stand only once.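 The compound was tested at five concentrations on cells cultured in 96-well plates, with a 48-hour exposure period. GI50 is the concentration that inhibits growth by half. TGI: total growth inhibition.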
# Key:
# Assay in all cases: NCI-60 cell line screen, 48 h
# MDA-MB-231 breast = system: MDA-MB-231 breast
# LOX IMVI melanoma = system: LOX IMVI melanoma
# HOP-92 NSCLC = system: HOP-92 NSCLC
# SF-539 CNS = system: SF-539 CNS
# A549 NSCLC = system: A549 NSCLC
# UACC-62 melanoma = system: UACC-62 melanoma
# U251 CNS = system: U251 CNS
# SW-620 colon = system: SW-620 colon
# M14 melanoma = system: M14 melanoma
# MALME-3M melanoma = system: MALME-3M melanoma
SMILES,GI50 (MDA-MB-231 breast),TGI (MDA-MB-231 breast),GI50 (LOX IMVI melanoma),TGI (LOX IMVI melanoma),GI50 (HOP-92 NSCLC),TGI (HOP-92 NSCLC),GI50 (SF-539 CNS),TGI (SF-539 CNS),GI50 (A549 NSCLC),TGI (A549 NSCLC),GI50 (UACC-62 melanoma),TGI (UACC-62 melanoma),GI50 (U251 CNS),TGI (U251 CNS),GI50 (SW-620 colon),TGI (SW-620 colon),GI50 (M14 melanoma),TGI (M14 melanoma),GI50 (MALME-3M melanoma),TGI (MALME-3M melanoma)
O=C1c2ccccc2-c2c1c1ccc([N+](=O)[O-])cc1c(=O)n2CCCBr,> 100 µM,> 100 µM,4.18 µM,> 100 µM,> 100 µM,> 100 µM,> 100 µM,> 100 µM,> 100 µM,> 100 µM,> 100 µM,> 100 µM,> 100 µM,> 100 µM,5.26 µM,> 100 µM,3.26 µM,> 100 µM,> 100 µM,> 100 µM
CC(=O)NC1=C(OS(=O)(=O)c2ccc(C)cc2)CN(C)C1=O,,23.1 µM,,17.5 µM,,8.49 µM,,5.84 µM,,15.3 µM,,21.2 µM,,8.75 µM,,> 37.3 µM,,20 µM,,6.21 µM
CCCn1c(C)nc2c1C(=O)c1ccccc1C2=O,34.1 µM,> 100 µM,22.9 µM,> 100 µM,> 100 µM,> 100 µM,27.1 µM,> 100 µM,28.5 µM,> 100 µM,22.1 µM,67.7 µM,22.4 µM,> 100 µM,33.5 µM,> 100 µM,40 µM,> 100 µM,2.71 µM,9.35 µM
C=CC(=O)N1CCN(c2ccc3cccc(NC(=O)c4cnc(C)cn4)c3n2)CC1,3.5 µM,> 100 µM,5.14 µM,21.4 µM,2.68 µM,> 100 µM,3.16 µM,15.3 µM,3.77 µM,> 100 µM,2.46 µM,15.6 µM,3.85 µM,36.4 µM,4.85 µM,34.9 µM,3.05 µM,21.3 µM,2.89 µM,15.9 µM
Cc1ccc(C(=O)Nc2ccc(CN3CCN(C)CC3)c(C(F)(F)F)c2)cc1C#Cc1cnc2cccnn12,0.215 µM and 0.317 µM,1.05 µM and 1.24 µM,0.178 µM and 0.336 µM,0.973 µM and 1.16 µM,0.104 µM and 0.306 µM,0.785 µM and 2.03 µM,0.255 µM and 0.669 µM,0.722 µM and 2.18 µM,0.377 µM and 1.31 µM,1.55 µM and 3.79 µM,0.306 µM and 1.06 µM,1.52 µM,0.473 µM and 1.22 µM,1.68 µM and 3.94 µM,0.283 µM and 0.594 µM,1.52 µM and 4.12 µM,0.162 µM and 0.351 µM,0.737 µM and 3.42 µM,0.474 µM,2.86 µM
CC(C)(C)c1n[nH]c(=S)n(/N=C/c2ccc(F)c(Oc3ccccc3)c2)c1=O,34.6 µM,> 100 µM,28.7 µM,72.2 µM,27.3 µM,> 100 µM,43.7 µM,> 100 µM,33.9 µM,> 100 µM,38.2 µM,> 100 µM,39.2 µM,> 100 µM,34.7 µM,> 100 µM,42 µM,> 100 µM,28.5 µM,91.5 µM
C[C@]12CC[C@H]3[C@@H](CCC4=CC(=O)CC[C@@H]43)[C@@H]1CC[C@@H]2OC(=O)CCc1ccccc1,18.9 µM,42.2 µM,15.6 µM,29.1 µM,20.1 µM,64.4 µM,16.3 µM,30.5 µM,25.1 µM,> 73.7 µM,9.64 µM,35.7 µM,15.1 µM,28.4 µM,20.3 µM,47.2 µM,21.2 µM,46.4 µM,17 µM,34.4 µM
